Source: article PMC7048748, “Anxiolytic Drug FGIN-1-27 Ameliorates Autoimmunity by Metabolic Reprogramming of Pathogenic Th17 Cells” (Scientific Reports, 2020)

How the values were obtained:
STAT3 = test: Phospho Stat3 staining after IL-6 re-stimulation; assay type: cell-based, mouse; details: re-stimulation with IL-6
Method: The following day, cells were treated with either DMSO or of FGIN-1-27 (10 μM). For phospho-ZAP70 analyses, cells were stained after 24 hours of treatment using 10 μg/ml of biotinylated anti-CD3 (145-2C11, BD Biosciences) and anti-CD28 (37.51, BD Biosciences) antibodies on ice for 15 minutes, washed, and stimulated in presence of 20 μg/ml of Streptavidin for 10 minutes at 37 degrees. Cells were then fixed in 2% PFA, permeabilized in Methanol/Acetone and stained with anti-phospho ZAP70 antibody (n3kobu5, eBioscience) and anti-CD4 (RM4-5, eBioscience). For phospho-STAT3 analyses, cells were cultured for additional 24 hours in IL-6 free media, before stimulation with 100 ng/ml of mIL-6 for 30 minutes. Cells were then fixed in 2% PFA, permeabilized in Methanol/Acetone and stained with anti-phospho-STAT3 antibody (4/P-STAT3, BD Biosciences) and anti-CD4. Dead cells were excluded using Live/Dead […] (Thermo Fisher) staining prior to stimulation. page 3: Supplementary Figur es Fig S1 (a) Genomic browser screenshot of Tspo depicting normalized RNA-seq read coverage (RPM) in different T cell subsets. Data were downloaded from NCBI GEO (accession number GSE40918) and processed as in Figure 4A. […] (g) Transcript levels for S ta t3 after 24 hours of treatment with DMSO or FGIN-1-27 quantified by qPCR. […]

Th17 cells = test: Intracellular metabolites by CE-MS; assay type: cell-based, mouse
Method: CD4 T cells were differentiated under Th17 polarization conditions and were either treated with DMSO (control) or FGIN-1-27. The error bars represent SD. (a) Genomic browser screenshots of IL-17a, IL-17f and Rorc loci depicting normalized RNA-seq read coverage (RPM) in Th17 cells treated with DMSO or FGIN-1-27 for 24 hours. […] (c) Heat map showing differentially expressed genes encoding glycolytic enzymes in Th17 cells treated with DMSO or FGIN-1-27 for 24 hours (d) Glycolytic metabolites measured in Th17 cells treated with DMSO or FGIN-1-27 for 72 hours. (e) Metabolites in the TCA cycle were measured in Th17 cells treated with DMSO or FGIN-1-27 for 72 hours.
8 million cells treated with either DMSO or FGIN-1-27 were used for extraction of intracellular metabolites. The cells were washed twice with 5% mannitol and treated with methanol to inactivate the enzymes. Next, the cell extract was treated with Milli-Q water containing internal standards (H3304-1002, Human Metabolome Technologies, inc., Tsuruoka, Japan) and left at rest for another 30 s. The extract was obtained and centrifuged at 2,300 ×g and 4 °C for 5 min and then 800 µL of upper aqueous layer was centrifugally filtered through a Millipore 5-kDa cutoff filter at 9,100 ×g and 4 °C for 120 min to remove proteins. The filtrate was centrifugally concentrated and re-suspended in 50 µL of Milli-Q water for CE-MS analysis. Cationic compounds were measured in the positive mode of CE-TOFMS and anionic compounds were measured in the positive and negative modes of CE-MS/MS according to the methods developed by Soga, et al.[39],[40]. Peaks detected by CE-TOFMS and CE-MS/MS were extracted using automatic integration software (MasterHands, Keio University, Tsuruoka, Japan and MassHunter Quantitative Analysis B.04.00, Agilent Technologies, Santa Clara, CA, USA, respectively) in order to obtain peak information including m/z, migration time (MT), and peak area. The peaks were annotated with putative metabolites from the HMT metabolite database based on their MTs in CE and m/z values determined by TOFMS. The tolerance range for the peak annotation was configured at ±0.5 min for MT and ±10 ppm for m/z. In addition, concentrations of metabolites were calculated by normalizing the peak area of each metabolite with respect to the area of the internal standard and by using standard curves, which were obtained by three-point calibrations. Hierarchical cluster analysis (HCA) and principal component analysis (PCA) were performed by Human Metabolome proprietary software, PeakStat and SampleStat, respectively. Detected metabolites were plotted on metabolic pathway maps using VANTED (Visualization and Analysis of Networks containing Experimental Data) software.

`CCCCCCN(CCCCCC)C(=O)Cc1c(-c2ccc(F)cc2)[nH]c2ccccc12` [FGIN-1-27, N, N-di-n-hexyl 2-(4-fluorophenyl) indole-3-acetamide] was tested. Which “phosphorylation of STAT3” value (STAT3) did it give?
Its value is “did not show a defect”.

What about the “TCA cycle intermediates (citric acid, cis-aconitic acid, 2-hydroxyglutaric acid, malic acid)” value (Th17 cells; 72 hours) of the same compound?
The value was “additionally reduced”.

And the lactate (Th17 cells; 72 hours)?
Its lactate is “unchanged levels”.

What about the pyruvate (Th17 cells; 72 hours) of the same compound?
The pyruvate was “lower levels”.

What about the amino acids (Th17 cells; 72 hours post compound treatment) of the same compound?
Its amino acids is “significant increase”.

And the “upper glycolytic intermediates (F6P, F1,6P, 3-PG, 2-PG)” value (Th17 cells; 72 hours, vs DMSO)?
The value was “substantially reduced”.
